# Reference: patent US20250332157A1, “SOLID COMPOSITION OF GLP-1 RECEPTOR AGONIST” (Hangzhou Zhongmeihuadong Pharmaceutical Co., Ltd., priority 2021, published 2025)
# Where “and” joins values, the source holds several entries; their conditions need not be identical. Equal entries are not always repeated. Structures can show the parent of a compound that is named as a salt.
# Legend:
# [1] = Forced degradation studies No. 2 of OAD2 2HCl in solution (water, HCl, NaOH, H2O2, UV light), HPLC; type: physicochemical
# Method: A stock solution was prepared by dissolving 12.90 mg of OAD2 2 HCl in acetonitrile:water (70:30) to a final volume of 25 mL ([…]). For test groups 1 and 2, the test solution was prepared by mixing 2 mL of the stock solution and 2 mL of water. For test groups 3 and 4, the test solution was prepared by mixing 2 mL of the stock solution and 2 mL of 0.1 N HCl solution. For test groups 5 and 6, the test solution was prepared by mixing 2 mL of the stock solution and 2 mL of 0.1 N NaOH solution. Test groups 1, 3, and 5 (at room temperature) were shielded from light by wrapping with aluminum foil.
# A stock solution was prepared by dissolving 5.37 mg of OAD2 2HCl in acetonitrile:water (40:60) to a final volume of 10 mL ([…]). For test group 7, the test solution was prepared by mixing 2 mL of the stock solution and 2 mL of 3% aqueous H2O2. For test group 8, the test solution was prepared by dissolving 5.58 mg to 5.64 mg of OAD2 2HCl in acetonitrile:water (40:60) to a final volume of 25 mL.
# The samples in each test group were stored either at room temperature or at 60° C. and observed after the periods indicated in the Table below.
# A validated, reverse phase liquid chromatography gradient method was applied to determine assay (content of the active ingredient). The column used was Supelco Ascentis Express RP-Amide, 150×3.0 mm, 2.7μ or equivalent column. Mobile phase A comprises 0.05% TFA in water (v/v). Mobile phase B comprises 0.05% TFA in acetonitrile:methanol (1:2) (v/v). The sample was run using a step gradient from time zero (50% mobile phase A) to 38 minutes (99% mobile phase B). The diluent used to dissolve the standard and sample was a 60:40 mixture of acetonitrile and water. Chromatographic peaks were detected using UV detector at 280 nm. Assay value was obtained by comparing peak responses, expressed as the peak area of a sample formulation of known concentration and the peak area obtained from a standard formulation of known concentration.
# The impurities were quantitated using the assay procedure described above. […]
# [2] = Forced degradation experiment of active ingredient (acid, alkali, oxidation, high temperature, light, high humidity), HPLC; type: physicochemical; parameters: Impurity B / Impurity E / Impurity F / Impurity G / Impurity I / Largest unknown impurity: unit not given here
# Method: Preparation of solutions: • (1) destructive test article solution: 25 mg of OAD2 or a pharmaceutically acceptable salt thereof was placed into a 50 ml measuring flask. Diluent was added to dissolve it and the mixture was diluted to the scale mark, shaken well and used as a test article solution. • (2) test article solution destructed by acid: 25.35 mg of OAD2 or a pharmaceutically acceptable salt thereof was placed into a 50 ml measuring flask. 2 ml of 1 mol/L hydrochloric acid was added, and the mixture was mixed, stood at room temperature for 24 h, adjusted pH to neutral with 1 mol/L sodium hydroxide solution. Diluent was added to dilute the mixture to the scale mark. The mixture was shaken well, and used as the test article solution destructed by acid. • (3) test article solution destructed by alkali: 26.64 mg of OAD2 or a pharmaceutically acceptable salt thereof was placed into a 50 ml measuring flask. 2 ml of 1 mol/L sodium hydroxide solution was added, and the mixture was mixed, stood at room temperature for 24h, adjusted pH to neutral with 1 mol/L hydrochloric acid solution. Diluent was added to dilute the mixture to scale mark. The mixture was shaken well, and used as test article solution destructed by alkali. • (4) acid-base blank: 2 ml of 1 mol/L sodium hydroxide solution was placed into a 50 ml measuring flask. The solution was neutralized with 1 mol/L hydrochloric acid solution, then diluted to the scale mark with a diluent, and shaken well to serve as the acid-base destruction blank solution. • (5) test article solution destructed by oxidation: 28.10 mg of OAD2 or a pharmaceutically acceptable salt thereof was placed into a 50 ml measuring flask. 2 ml of 15% hydrogen peroxide was added, stood at room temperature for 9 h. The mixture was diluted to the scale mark with a diluent. […] It was dissolved and diluted to the scale mark with a diluent, shaken well, and used as the test article solution destructed by high temperature. • (8) test article solution destructed by light exposure: 25.12 mg of OAD2 or pharmaceutically acceptable salt thereof was accurately weighted, placed into a 50 ml measuring flask, stood under irradiation of light 4500 Lx+−500 Lx for 6 days. It was dissolved and diluted to the scale mark with a diluent, shaken well, and used as the test article solution destructed by light exposure. • (9) test article solution destructed by high-humidity destruction: 25.71 mg of OAD2 or a pharmaceutically acceptable salt thereof was placed into a 50 ml measuring flask, then the measuring flask was placed into a drier with KNO3 saturated solution at the bottom (humidity was 92.5%), stood for 5 days. It was dissolved and diluted to the scale mark with a diluent, shaken well, and used as the test article solution destructed by high-humidity destruction. • (10) blank solution that is not destructed, not destructed by high-temperature, not destructed by high-humidity and not destructed by light exposure: a diluent.
# The measuring method: 2 μl of each of the above solutions (1)-(10) was injected into a liquid chromatograph, and the chromatograms were recorded. Among them, the results of the forced degradation experiment are shown in Table 13.1, and the results of the changes of various impurity components after the forced degradation are shown in Table 13.2. […]
# [3] = test group 7: 1.5% solution of H2O2, RT, after 90 minutes
smiles,measurement,setting,value
"CC[C@@H](c1ccccc1)N1Cc2cc3c(cc2C[C@H]1C(=O)N[C@@H](Cc1ccc(-c2ccnc(C)c2C)cc1)C(=O)O)OC[C@H](c1ccc(OCc2ccc(Cl)c(Cl)c2)cc1)O3 [OAD2 dihydrochloride, (S)-2-(3S,8S)-3-(4-(3,4-dichlorobenzyloxy)phenyl-7-((S)-1-phenylpropyl)-2,3,6,7,8,9-hexahydro-[1,4]-dioxino[2,3-g]isoquinolin-8-formylamino)-3-(4-(2,3-dimethylpyridin-4-yl)phenyl)propanoic acid dihydrochloride]",growth of impurities by HPLC,[1]; [3],significant increase in impurities
same,loss of active ingredient,[1]; [3],10%
same,growth of impurities or loss of active ingredient by HPLC,"[1]; test groups 1-6 and 8: water, 0.05N HCl, 0.05N NaOH at RT or 60° C., 1 and 2 days, UV light (365 nm) RT 24 hours",no substantial growth in any impurities or loss of active ingredient
"CC[C@@H](c1ccccc1)N1Cc2cc3c(cc2C[C@H]1C(=O)N[C@@H](Cc1ccc(-c2ccnc(C)c2C)cc1)C(=O)O)OC[C@H](c1ccc(OCc2ccc(Cl)c(Cl)c2)cc1)O3 [OAD2, (S)-2-(3S,8S)-3-(4-(3,4-dichlorobenzyloxy)phenyl-7-((S)-1-phenylpropyl)-2,3,6,7,8,9-hexahydro-[1,4]-dioxino[2,3-g]isoquinolin-8-ylformylamino)-3-(4-(2,3-dimethylpyridin-4-yl)phenyl)propionic acid]",Impurities C + D,[2]; Acid destruction,0.03%
same,Impurity A,[2]; Acid destruction,0.13
same,Impurity B,[2]; Acid destruction,Undetected
same,Impurity E,[2]; Acid destruction,Undetected
same,Impurity F,[2]; Acid destruction,0.34
same,Impurity G,[2]; Acid destruction,0.05
same,Impurity H,[2]; Acid destruction,Undetected
same,Impurity I,[2]; Acid destruction,Undetected
same,Largest unknown impurity,[2]; Acid destruction,0.07
same,Number of impurities (≥0.05%),[2]; Acid destruction,4
same,Purity of main peak,[2]; Acid destruction,99.4%
same,Total Impurities,[2]; Acid destruction,0.65%
same,Impurities C + D,[2]; Alkali destruction,0.05%
same,Impurity A,[2]; Alkali destruction,0.13
same,Impurity B,[2]; Alkali destruction,0.02
same,Impurity E,[2]; Alkali destruction,Undetected
same,Impurity F,[2]; Alkali destruction,0.36
same,Impurity G,[2]; Alkali destruction,0.07
same,Impurity H,[2]; Alkali destruction,Undetected
same,Impurity I,[2]; Alkali destruction,Undetected
same,Largest unknown impurity,[2]; Alkali destruction,0.07
same,Number of impurities (≥0.05%),[2]; Alkali destruction,4
same,Purity of main peak,[2]; Alkali destruction,99.3%
same,Total Impurities,[2]; Alkali destruction,0.73%
same,Impurities C + D,[2]; High humidity destruction,0.04%
same,Impurity A,[2]; High humidity destruction,0.12
same,Impurity B,[2]; High humidity destruction,Undetected
same,Impurity E,[2]; High humidity destruction,0.01
same,Impurity F,[2]; High humidity destruction,0.31
same,Impurity G,[2]; High humidity destruction,0.04
same,Impurity H,[2]; High humidity destruction,Undetected
same,Impurity I,[2]; High humidity destruction,Undetected
same,Largest unknown impurity,[2]; High humidity destruction,0.08
same,Number of impurities (≥0.05%),[2]; High humidity destruction,3
same,Purity of main peak,[2]; High humidity destruction,99.3%
same,Total Impurities,[2]; High humidity destruction,0.68%
same,Impurities C + D,[2]; High temperature destruction,0.08%
same,Impurity A,[2]; High temperature destruction,1.76
same,Impurity B,[2]; High temperature destruction,0.97
same,Impurity E,[2]; High temperature destruction,0.08
same,Impurity F,[2]; High temperature destruction,0.26
same,Impurity G,[2]; High temperature destruction,0.09
same,Impurity H,[2]; High temperature destruction,0.02
same,Impurity I,[2]; High temperature destruction,Undetected
same,Largest unknown impurity,[2]; High temperature destruction,2.36
same,Number of impurities (≥0.05%),[2]; High temperature destruction,25
same,Purity of main peak,[2]; High temperature destruction,92.2%
same,Total Impurities,[2]; High temperature destruction,7.8%
same,Impurities C + D,[2]; Light exposure destruction,0.01%
same,Impurity A,[2]; Light exposure destruction,1.13
same,Impurity B,[2]; Light exposure destruction,0.26
same,Impurity E,[2]; Light exposure destruction,0.12
same,Impurity F,[2]; Light exposure destruction,0.22
same,Impurity G,[2]; Light exposure destruction,0.03
same,Impurity H,[2]; Light exposure destruction,0.38
same,Impurity I,[2]; Light exposure destruction,Undetected
same,Largest unknown impurity,[2]; Light exposure destruction,0.78
same,Number of impurities (≥0.05%),[2]; Light exposure destruction,24
same,Purity of main peak,[2]; Light exposure destruction,93.1%
same,Total Impurities,[2]; Light exposure destruction,6.9%
same,Impurities C + D,[2]; No destruction,0.05%
same,Impurity A,[2]; No destruction,0.12
same,Impurity B,[2]; No destruction,Undetected
same,Impurity E,[2]; No destruction,Undetected
same,Impurity F,[2]; No destruction,0.31
same,Impurity G,[2]; No destruction,0.03
same,Impurity H,[2]; No destruction,Undetected
same,Impurity I,[2]; No destruction,Undetected
same,Largest unknown impurity,[2]; No destruction,0.07
same,Number of impurities (≥0.05%),[2]; No destruction,3
same,Purity of main peak,[2]; No destruction,99.4%
same,Total Impurities,[2]; No destruction,0.6%
same,Impurities C + D,[2]; Oxidative destruction,0.18%
same,Impurity A,[2]; Oxidative destruction,0.36
same,Impurity B,[2]; Oxidative destruction,2.77
same,Impurity E,[2]; Oxidative destruction,Undetected
same,Impurity F,[2]; Oxidative destruction,0.26
same,Impurity G,[2]; Oxidative destruction,0.20
same,Impurity H,[2]; Oxidative destruction,Undetected
same,Impurity I,[2]; Oxidative destruction,0.02
same,Largest unknown impurity,[2]; Oxidative destruction,2.56
same,Number of impurities (≥0.05%),[2]; Oxidative destruction,18
same,Purity of main peak,[2]; Oxidative destruction,91.6% and 91.8%
same,Total Impurities,[2]; Oxidative destruction,8.2%
